Experimental data from PubChem BioAssay AID651549 (Sanford-Burnham Center for Chemical Genomics, 2012).
Calls of active or inactive are those of the source.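 How the source made its calls: active means compounds blocking the PEG3 reporter with IC50 up to 10 µM at either incubation, yet sparing the GAPDH control reporter; inactive means the rest.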

Experiment: GAPDH and PEG-3 promoter luciferase suppression – cell-based, luminescence, set 2, counter-screen for PEG-3 promoter inhibitor project, dose response (AID 651549)
Conditions: HeLa PEG-Prom-luciferase or GAPDH-reporter, 6/24 h

Row | SMILES | IC50 (GAPDH, run 1, 6 h) | IC50 (GAPDH, run 1, 24 h) | IC50 (PEG-3, run 1, 6 h) | IC50 (PEG-3, run 1, 24 h)
1 | COc1cc2nc(CN3CC=C(c4ccccc4)CC3)[nH]c(=O)c2cc1OC | inactive | inactive | inactive | inactive
2 | NC(=O)c1cc([N+](=O)[O-])ccc1NCc1ccc(N)cc1 | inactive | inactive | inactive | 7.33 µM
3 | CCn1cc(C(=O)NCc2ccco2)c(=O)c2cc(S(=O)(=O)N3CC(C)CC(C)C3)ccc21 (stereo unspecified) | inactive | 2.7 µM | > 99 µM (inactive) | 2.63 µM
4 | CC(C)(C)c1ccc(Oc2ccc(N)cc2)cc1 | 6.12 µM | 5.35 µM | 6.09 µM | 6.51 µM
5 | Cc1ccc(C)c(S(=O)(=O)N2CCN(c3ncnc4sccc34)CC2)c1 | inactive | 2.54 µM | inactive | 2.18 µM
6 | Cc1cccc(NC(=O)c2oc3ccc(S(=O)(=O)N4CCOCC4)cc3c2C)c1C | inactive | 6.39 µM | > 99 µM (inactive) | 8.47 µM
7 | CS(=O)(=O)c1ccc(-c2sc3ccccc3c2C#CCCO)cc1 | inactive | inactive | inactive | inactive
8 | CC1CCN(c2nc3ccc(C(=O)O)cc3s2)CC1 | 1.93 µM | 2.14 µM | 1.01 µM | 1.51 µM
9 | Cc1cc2cc(CCNC(=O)C(=O)c3c[nH]c4ccccc34)c(=O)[nH]c2cc1C | inactive | 4.9 µM | > 99 µM (inactive) | 7.83 µM
10 | CCC(C)(C)c1ccc(Oc2ccc(N)cc2)cc1 | 5.21 µM | 0.566 µM | 7.48 µM | 7.31 µM
11 | O=C(Nc1ccccc1C(=O)Nc1nnc(C(F)(F)F)s1)c1ccccc1 | 1.41 µM | 7.02 µM | > 99 µM (inactive) | inactive
12 | Cc1ccc2nc(NC(=O)CSCC(=O)OCC(=O)c3ccccc3)sc2c1 | inactive | 5.63 µM | inactive | inactive
13 | COCCn1c(C)cc(C(=O)COc2ccc(C)nc2[N+](=O)[O-])c1C | inactive | inactive | inactive | inactive
14 | Cc1c(CN2CCC(CO)(CCOc3ccccc3)CC2)[nH]c2c(Cl)cccc12 | inactive | inactive | inactive | inactive
